Results as given in ChEMBL document CHEMBL1201862, “PubChem BioAssay data set” (2004).
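Method: 48-hour compound exposure of cells in 96-well plates, five concentrations, linear interpolation of endpoints. The concentration for 50% growth inhibition is given as GI50.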 Active and inactive are the calls of the source. No stated cut-off is given here; in the data, active = GI50 up to about 1.1 µM and inactive = higher.

How the values were obtained:
Assay in all cases: NCI anticancer screen, dose series, 48 h
ACHN = system: ACHN
DU-145 = system: DU-145
IGROV-1 = system: IGROV-1
KM12 = system: KM12
NCI-H460 = system: NCI-H460
NCI/ADR-RES = system: NCI/ADR-RES
OVCAR-3 = system: OVCAR-3
OVCAR-8 = system: OVCAR-8
PC-3 = system: PC-3
SF-268 = system: SF-268
SF-539 = system: SF-539
SK-MEL-28 = system: SK-MEL-28
SK-OV-3 = system: SK-OV-3
SNB-19 = system: SNB-19
SW-620 = system: SW-620
TK-10 = system: TK-10
MCF7 = system: MCF7
RPMI-8226 = system: RPMI-8226
Hs-578T = system: Hs-578T

Structure (SMILES)	GI50 (ACHN)	GI50 (DU-145)	GI50 (IGROV-1)	GI50 (KM12)	GI50 (NCI-H460)	GI50 (NCI/ADR-RES)	GI50 (OVCAR-3)	GI50 (OVCAR-8)	GI50 (PC-3)	GI50 (SF-268)	GI50 (SF-539)	GI50 (SK-MEL-28)	GI50 (SK-OV-3)	GI50 (SNB-19)	GI50 (SW-620)	GI50 (TK-10)	GI50 (MCF7)	GI50 (RPMI-8226)	GI50 (Hs-578T)
CCNC(=O)NNc1ncnc2c1c(-c1ccc(Cl)cc1)cn2-c1ccc(C)cc1	17.7 µM (inactive)	21.5 µM (inactive)	20.5 µM (inactive)	20.1 µM (inactive)	22.4 µM (inactive)	20 µM (inactive)	16.7 µM (inactive)	15 µM (inactive)	17.7 µM (inactive)	19 µM (inactive)	16.7 µM (inactive)	18.9 µM (inactive)	27.4 µM (inactive)	18.2 µM (inactive)	21.2 µM (inactive)	34.2 µM (inactive)			
COC(=O)CC1(CNC(=O)OCc2ccccc2)OCCO1	> 100 µM (inactive)	> 100 µM (inactive)	> 100 µM (inactive)	> 100 µM (inactive)	> 100 µM (inactive)	> 100 µM (inactive)	> 100 µM (inactive)	> 100 µM (inactive)	> 100 µM (inactive)		> 100 µM (inactive)	> 100 µM (inactive)	> 100 µM (inactive)	> 100 µM (inactive)	> 100 µM (inactive)	> 100 µM (inactive)	> 100 µM (inactive)	> 100 µM (inactive)	
CCOC(=O)/C=C/c1cccc(F)c1	> 100 µM (inactive)	> 100 µM (inactive)	> 100 µM (inactive)	> 100 µM (inactive)	> 100 µM (inactive)	> 100 µM (inactive)		> 100 µM (inactive)	> 100 µM (inactive)	> 100 µM (inactive)	> 100 µM (inactive)	> 100 µM (inactive)		> 100 µM (inactive)	> 100 µM (inactive)	> 100 µM (inactive)	> 100 µM (inactive)	> 100 µM (inactive)	
CCOC(=O)C(NC(=O)Nc1ccc(Cl)cc1)(OC)C(F)(F)F (centres undefined)	0.757 µM (active)		> 100 µM (inactive)			4.66 µM (inactive)		49.3 µM (inactive)	32.3 µM (inactive)	27.7 µM (inactive)	19.7 µM (inactive)	> 100 µM (inactive)	> 100 µM (inactive)	22.2 µM (inactive)	64.4 µM (inactive)	30.7 µM (inactive)			42.4 µM (inactive)
COC(=O)c1c(-c2ccccc2)c2sc3ccccc3n2c1N	50 µM (inactive)	57.5 µM (inactive)	58.6 µM (inactive)	26.1 µM (inactive)	40.2 µM (inactive)	> 100 µM (inactive)	48.9 µM (inactive)	58.3 µM (inactive)	31.1 µM (inactive)	44 µM (inactive)	28.1 µM (inactive)	66.1 µM (inactive)	> 100 µM (inactive)	74.3 µM (inactive)		54.3 µM (inactive)	34.8 µM (inactive)	> 100 µM (inactive)	
O=C(NNC(=O)c1c(Cl)c(Cl)c(Cl)c(Cl)c1-c1nc2ccccc2[nH]1)c1ccc(Cl)cc1	46.9 µM (inactive)	42.5 µM (inactive)	17.5 µM (inactive)	38.1 µM (inactive)		32.9 µM (inactive)	65.2 µM (inactive)	66.1 µM (inactive)	55 µM (inactive)	> 100 µM (inactive)	47.4 µM (inactive)	81.1 µM (inactive)	> 100 µM (inactive)	68.5 µM (inactive)	50.7 µM (inactive)		34.9 µM (inactive)	33 µM (inactive)	
COc1ccc(/C=C2\C(=O)N(C(=O)Cc3ccccc3)N=C2C)cc1OC	> 100 µM (inactive)			> 100 µM (inactive)			> 100 µM (inactive)	> 100 µM (inactive)		> 100 µM (inactive)	> 100 µM (inactive)	> 100 µM (inactive)		> 100 µM (inactive)	> 100 µM (inactive)	> 100 µM (inactive)		> 100 µM (inactive)	
O=c1c2ccccc2n2c(-c3ccc(O)cc3)nnc2n1-c1ccccc1	16.1 µM (inactive)	21.9 µM (inactive)	18.1 µM (inactive)	49.2 µM (inactive)	17.8 µM (inactive)	21.5 µM (inactive)	18.2 µM (inactive)	30.8 µM (inactive)	17.9 µM (inactive)	21.8 µM (inactive)	18 µM (inactive)	24.3 µM (inactive)	20.6 µM (inactive)	20.4 µM (inactive)	13.5 µM (inactive)	26.5 µM (inactive)			
Cc1ccc(S(=O)(=O)N2CCCN(S(=O)(=O)c3ccc(C)cc3)CCN(S(=O)(=O)c3ccc(C)cc3)CCCSCC2)cc1	> 100 µM (inactive)	> 100 µM (inactive)	> 100 µM (inactive)		> 100 µM (inactive)	> 100 µM (inactive)	> 100 µM (inactive)	> 100 µM (inactive)		> 100 µM (inactive)	> 100 µM (inactive)	> 100 µM (inactive)	> 100 µM (inactive)	> 100 µM (inactive)	> 100 µM (inactive)		> 100 µM (inactive)	> 100 µM (inactive)	> 100 µM (inactive)
NNC(=S)N/N=C(/C(=O)Nc1ccc([N+](=O)[O-])cc1)c1nc2ccc([N+](=O)[O-])cc2nc1O	95.3 µM (inactive)		> 100 µM (inactive)	> 100 µM (inactive)	> 100 µM (inactive)			> 100 µM (inactive)		> 100 µM (inactive)	> 100 µM (inactive)	> 100 µM (inactive)	> 100 µM (inactive)		> 100 µM (inactive)	> 100 µM (inactive)		> 100 µM (inactive)	
Nc1nc(SCCC/C=C/I)nc2c1ncn2C1OC(CO)C(O)C1O (centres undefined)	> 202 µM (inactive)		> 202 µM (inactive)	> 202 µM (inactive)	> 202 µM (inactive)		> 202 µM (inactive)	> 202 µM (inactive)		> 202 µM (inactive)	> 202 µM (inactive)	> 202 µM (inactive)	> 202 µM (inactive)	> 202 µM (inactive)	> 202 µM (inactive)	> 202 µM (inactive)		> 202 µM (inactive)	
N#C/C(C(=O)Nc1ccccc1)=C(/N)N1CCCCC1	> 100 µM (inactive)	> 100 µM (inactive)	91 µM (inactive)	> 100 µM (inactive)	> 100 µM (inactive)	> 100 µM (inactive)	> 100 µM (inactive)	> 100 µM (inactive)	> 100 µM (inactive)		> 100 µM (inactive)	> 100 µM (inactive)	> 100 µM (inactive)	> 100 µM (inactive)	> 100 µM (inactive)		> 100 µM (inactive)	> 100 µM (inactive)	
CCc1cc2c(cc1O)CC[C@@H]1[C@@H]2CC[C@]2(C)[C@@H](O)CC[C@@H]12	8.81 µM (inactive)		11.2 µM (inactive)	6.19 µM (inactive)	5.42 µM (inactive)	3.66 µM (inactive)		7.24 µM (inactive)	12.2 µM (inactive)	6.41 µM (inactive)		5.14 µM (inactive)	11.7 µM (inactive)	6.34 µM (inactive)	4.16 µM (inactive)	21.9 µM (inactive)	3.63 µM (inactive)		
